In the METLIN SMRT retention time set (Domingo-Almenara et al. 2019):

Assay: gradient 5% acetonitrile 3 min, to 50% in 2 min, to 85% in 15 min, held 3 min, 100 µL/min
Conditions: column: Zorbax Extend-C18 2.1 x 50 mm; eluents: water / acetonitrile, 0.1% formic acid
Outline: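 Mixtures of ~100 pure standards were chromatographed on a Zorbax Extend-C18 column (2.1 × 50 mm, 1.8 μm) at 100 μL/min using water and acetonitrile, each with 0.1% formic acid. Detection used a quadrupole time-of-flight mass spectrometer in positive and negative ionization mode, and data collection spanned 3 months. Retention time was obtained from adduct peaks picked computationally and each checked manually.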

Cc1sc2ncnc(SCc3ccco3)c2c1C
RP-LC retention time: 1150 s

Cc1cc2nc(C(F)(F)F)c(=O)n(C(C)C(=O)NCCCN3CCN(C)CC3)c2cc1C (stereo unspecified)
RP-LC retention time: 652 s

O=C(NCc1cccc(Cl)c1)C1CCCN(c2nc3cccnc3n(Cc3ccccc3)c2=O)C1 (stereo unspecified)
RP-LC retention time: 1190 s

O=C(Cn1ccn(-c2ccc3c(c2)OCCO3)c(=O)c1=O)Nc1ccccc1F
RP-LC retention time: 655 s

Cc1ccc(C)c(NC(=O)Cn2nc3c(Oc4ccc(C(C)C)cc4)nccn3c2=O)c1
RP-LC retention time: 1080 s

Cc1nc(Cn2cccc2C(=O)Nc2ccc(C)c(C)c2)no1
RP-LC retention time: 910 s

CCn1c(CCC(=O)NCc2ccc(F)cc2)nc2c(C)cccc2c1=O
RP-LC retention time: 848 s

Cn1c(=O)c(=O)n(C)c2cc(N3CCCCC3)c(NC(=O)CN3CCCCC3)cc21
RP-LC retention time: 592 s

CCc1cccc(NC(=O)Cn2nc3cc(C)nc(Nc4ccc(F)c(C)c4)n3c2=O)c1
RP-LC retention time: 1190 s

CCN1c2ccc(F)cc2C(=O)NC12CCN(C(=O)c1cc(F)cc(F)c1)CC2
RP-LC retention time: 1030 s

O=C(c1cc2occc2c(Nc2ccc(Cl)cc2)n1)N1CCN(c2ccccn2)CC1
RP-LC retention time: 713 s

COCCCNC(=O)N1CCCCCC1c1ccccc1Cl (stereo unspecified)
RP-LC retention time: 933 s

O=C(COc1cccc(Cl)c1)Nc1nc(-c2ccc(Br)cc2)cs1
RP-LC retention time: 1260 s

CCn1cc(-c2nc(-c3ccccn3)no2)c(=O)c2cc(F)c(N3CCOCC3)cc21
RP-LC retention time: 744 s

Cc1ccc(NC(=O)Cn2nc3n(c2=O)CCCCC3)c(C)c1
RP-LC retention time: 703 s

COc1ccc(-c2noc3ncnc(N4CCC(C(=O)N5CCC(C(N)=O)CC5)CC4)c23)cc1
RP-LC retention time: 656 s

CCC(C)NC(=O)NC1CCN(C2=NS(=O)(=O)C(c3ccc(C)c(C)c3)=C2C)CC1 (stereo unspecified)
RP-LC retention time: 888 s

COc1ccc(OC)c(S(=O)(=O)N2CCC(Cc3ncc(C)n3C3CC3)C2)c1 (stereo unspecified)
RP-LC retention time: 656 s

O=C(c1ccc(-n2cccn2)nc1)N1CCCCC1
RP-LC retention time: 732 s

Cc1cc2ccccc2n1CCNC(=O)C(=O)c1c[nH]c2ccccc12
RP-LC retention time: 1010 s

Cc1cc(C)cc(NC(=O)NCC2(N3CCOCC3)CCOC2)c1 (stereo unspecified)
RP-LC retention time: 617 s

COC(=O)c1ccc2c(=O)n(-c3ccc4c(c3)OCO4)c(N3CCC(C)CC3)nc2c1
RP-LC retention time: 1150 s

O=C(c1cn(-c2cc(N3CCSCC3)ncn2)cn1)N1CCN(c2ccccn2)CC1
RP-LC retention time: 624 s

O=C(Cc1c[nH]c2ccccc12)N1CCN2CCS(=O)(=O)N(C3CC3)C(=O)C2C1 (stereo unspecified)
RP-LC retention time: 743 s

CCN(CC)c1nc(C(=O)N2CCN(c3ccccn3)CC2)nc2nc(C)cc(C)c12
RP-LC retention time: 570 s

CC1=NS(=O)(=O)N(Cc2ccccc2)C=C1C(=O)OCc1noc(-c2ccccc2C)n1
RP-LC retention time: 1170 s

CC(=O)N1CCCC(c2nc(CCNC(=O)C3CCC3)cs2)C1 (stereo unspecified)
RP-LC retention time: 625 s

Cc1ccc(CNC(=O)c2c(C)oc3nc(C)nc(N4CCOCC4)c23)cc1
RP-LC retention time: 787 s

COc1ccc(-c2nc3cnccn3c2Nc2c(C)cccc2C)cc1OC
RP-LC retention time: 784 s

CCOc1ccc(NC(=O)c2cnn(-c3ccc(Br)cc3)c2)cc1
RP-LC retention time: 1030 s

c1ccc(-c2noc(-c3cc(N4CCOCC4)nc4ccccc34)n2)cc1
RP-LC retention time: 1240 s

Cc1ccc(CSc2ccc(-n3nc4c(c3C)CCC4)nn2)cc1
RP-LC retention time: 1370 s

Cc1ccc2oc(=O)c3cc(C(=O)N4CCN(c5ccccn5)CC4)sc3c2c1
RP-LC retention time: 664 s

CC(=O)N1CCc2c([nH]c3ccccc23)C12C(=O)N(CC(C)C)c1ccc(Br)cc12 (stereo unspecified)
RP-LC retention time: 974 s

Cc1cc(-c2nnc(NC(=O)Cc3ccc4c(c3)OCO4)o2)n(C)n1
RP-LC retention time: 648 s

O=C(Cn1nnc2ccccc2c1=O)Nc1nc2ccccc2[nH]1
RP-LC retention time: 597 s
